Patent US20230338363A1, “COMBINATION CHEMO-IMMUNOTHERAPY FOR PANCREATIC CANCER USING THE IMMUNOGENIC EFFECTS OF AN IRINOTECAN SILICASOME NANOCARRIER PLUS ANTI-PD-1” (The Regents of the University of California, priority 2020, published 2023)
Counter-ions that a name gives are not always drawn.

Experiments:
KPC cells [1] = test: ER stress: CHOP and cleaved caspase-3 western blotting, total ROS, intracellular Ca2+ flux; type: cell-based, mouse; conditions: 24 h
Method: Intracellular ROS production was determined by a fluorescence-based ROS Kit (Abcam, ab186027) in KPC cells. This assay measures total ROS species according to vendor’s instructions. This assay is frequently used in cell biology to show the contribution of ROS in the context of ER stress and autophagy^3. Briefly, KPC cells were treated with IRIN (300 µM), OX (500 µM) or TUN (10 µM) for 24 h. Images were captured using a fluorescence microscope. Signal intensity was quantified by Image J software. At least three representative images were analyzed for each treatment. Data represents mean ± SD, n=3. *p<0.05, ***p<0.001, compared to PBS group (1-way ANOVA followed by a Tukey’s test). Bar is 50 µm.
Intracellular Ca^2+ flux was assessed by a Fluo 4 AM assay in KPC cells. The cells were treated with IRIN (300 µM), OX (500 µM) or TUN (10 µM) for 24 h. Images were captured using a fluorescence microscope, followed by data analysis using the Image J software. At least three representative images were analyzed for each treatment. Data represents mean ± SD, n=3. **p<0.01, ***p<0.001, compared to PBS group (1-way ANOVA followed by a Tukey’s test). Bar is 50 µm.
KPC cells were treated with IRIN silicasome at drug dose of 75 µM and 300 µM for 24 hours. PBS and empty silicasome (that is equivalent to drug dose of 300 µM) were included as control. Ca^2+ efflux (panel A) and total ROS (panel B) measurements were performed similar to FIGS. 14 and 15. Data represents mean ± SD, n=3. *p<0.05, **p<0.001, n.s., not significant (1-way ANOVA followed by a Tukey’s test). Panel C) In a separate experiment, KPC cells were seeded in to a 6-well plate, followed by the treatment using silicasome w/wo IRIN (300 µM) for 48 hours. ER marker, CHOP protein, was assayed by western blotting similar to FIG. 2, panel A
Western blotting was also used to detect the ER stress marker, CHOP, and Cleaved Caspase-3 (CC-3). In this case, KPC cells were treated with IRIN at the indicated concentrations (75- 600 µM) for 24 h. In a separate experiment, KPC cells were treated with IRIN (300 µM) and tunicamycin (10 µM) for 4 h. Primary antibodies were purchased from Cell Signaling Technology: β-actin (#3700), vinculin (#13901), CHOP (#2895), and Cleaved Caspase-3 (#9664).

KPC cells [2] = test: CRT expression (flow cytometry), HMGB1 release (ELISA) and ATP release; type: cell-based, mouse
Method: 7.5×10^4 KPC cells were seeded into 24-well plates. After cell attachment, KPC cells were treated with IRIN (300 µM), OX (500 µM), DOX (20 µM or PTX (12 µM for 24 h. The cell culture media were collected in 1.5 mL tube and spun down (2,000 rpm for 5 min) to collect the supernatants for HMGB1 detection by an ELISA kit (Catalog# ST51011, IBL International GmbH). Surface CRT expression was measured by flow cytometry in the same experiment, as previously described. ^[27] Briefly, the loosely attached cells were combined with trypsin-treated adhered cells. The cells were washed in cold PBS and then stained with a primary anti-CRT antibody (Abcam, ab2907, 1: 140) in 200 µL BD staining buffer for 0.5 h on ice. The cells were washed in cold PBS and stained with an Alexa Fluor® 680-conjugated secondary antibody (LifeScience Technologies #A21244) for 30 min on ice. After washing in cold PBS, the cells were assessed in a LSRII flow cytometer (BD Biosciences).

KPC tumor = test: Vaccination experiment with dying chemo-treated KPC cells; type: in vivo, mouse
Method: The vaccination schedule is highlighted in FIG. 2, panel C. Eight million KPC cells were seeded in a tissue culture dish. After cellular attachment, IRIN (300 µM or OX (500 µM were added for 24 h. Cells were collected and washed before resuspended in 0.8 mL cold PBS. For vaccination, each mouse received subcutaneous (SC) injection of a 100 µL suspension of chemo-treated cells in the right flank. Control animals received SC injection with 0.1 mL PBS. The vaccination was repeated after 7 days. Fourteen days after the 1st injection, the animals received SC injection of normal KPC cells (1 million cells in 0.1 mL PBS) in the contralateral (left) flank. Tumor growth was measured by a digital caliper every 2-3 days, and the tumor volume calculated according to the formula: length × width^2 /2. Animals were sacrificed on day 26 and the tumors were collected, weighed and fixed in 10% formalin, followed by paraffin embedding and sectioning to derive to 4 µm thick slices for IHC analysis. Primary antibodies to CD8 (#14-0808-82) and FoxP3 (#13-5773-82) were purchased from ThermoFisher. IHC staining was performed in the UCLA Translational Pathology Core Laboratory (TPCL). The slides were scanned and images assessed by using Aperio ImageScope software (Leica).

PANC-1 cells = test: Confirmative cellular studies (alkalization, autophagy inhibition, PD-L1 induction); type: cell-based, human; conditions: equivalent drug concentration 300 µM, 24 hrs
Method: To confirm the effect of IRIN, another PDAC cell line, i.e. PANC-1 cells, were used to study IRIN induced alkalization effect (panel A), autophagy inhibition (panel B) and PD-L1 induction (panel C). The treatments included free IRIN, IRIN silicasome and empty silicasome at equivalent drug concentration of 300 µM for 24 hrs. PBS served as a negative control. Bars: 10 µm. Signal intensity was quantified by Image J. At least three representative images were analyzed for each treatment. Data represents mean ± SD, n = 3. *p<0.05, **p<0.01, ***p<0.001 (1-way ANOVA followed by a Tukey’s test). […] No significant effect was observed when empty silicasome was tested.

`CCc1c2c(nc3ccc(OC(=O)N4CCC(N5CCCCC5)CC4)cc13)-c1cc3c(c(=O)n1C2)COC(=O)[C@]3(O)CC` [IRIN, Irinotecan hydrochloride trihydrate] was tested, and the “intracellular Ca2+ release (Fluo-4 AM assay)” value (KPC cells [1]; IRIN 300 µM) was “response profile similar to ROS production”, the “total ROS production” value (KPC cells [1]; IRIN 300 µM) was “robust generation ROS production” and the “CHOP expression (immunoblotting)” value (KPC cells [1]; IRIN 75-600 µM) was “sizable and dose-dependent increase in CHOP expression”. The “cleaved caspase-3 (CC-3) expression” value (KPC cells [1]; IRIN 75-600 µM) was “increased expression of cleaved caspase-3”, the ATP release (KPC cells [2]) was “could not demonstrate an increase in ATP release” and the “CRT expression and HMGB1 release” value (KPC cells [2]; IRIN 300 µM, 24 h) was “strong inducer of both responses”. For the same compound, the “growth of tumor on the opposite flank vs PBS control” value (KPC tumor; KPC cells treated with 300 µM IRIN or 500 µM OX, p <0.05) was “improved the shrinkage of the tumor on the opposite flank significantly”, the “tumor disappearance at harvesting” value (KPC tumor; day 26) was “total tumor disappearance in one IRIN-treated animal” and the “CD8+ staining number (IHC)” value (KPC tumor; harvested tumors, day 26) was “no significant increase”. For the same compound, the “CD8+/Treg cells ratio (IHC)” value (KPC tumor; harvested tumors, day 26) was “significantly (p <0.01) increased”, the “FoxP3+ expression (IHC)” value (KPC tumor; harvested tumors, day 26) was “significantly (p<0.01) decreased” and the “lysosomal pH, LC-3B generation and PD-L1 expression” value (PANC-1 cells) was “capable of neutralizing lysosomal pH, triggered LC-3B generation and increase PD-L1 expression”.
